Laboratory results taken from patent US20260092071A1, “COMPOUNDS AND COMPOSITIONS AS SMARCA2/4 DEGRADERS AND USES THEREOF” (REGENTS OF THE UNIVERSITY OF MICHIGAN, priority 2022, published 2026).
Read-outs that look alike come from different tables or passages of the source.

What was measured:
SMARCA4 = SMARCA4 (Homo sapiens, UniProt P51532); test: HiBiT assay for protein degradation, Hela SMARCA4-HiBiT cells (A series); assay type: cell-based; set-up: fuse HiBiT to the carboxy terminus of SMARCA2 (Promega CS302365) or SMARCA4 (Promega CS3023225); host or cells: HeLa (CRISPR/Cas9 HiBiT knock-in); details: for DC50: read-out: SMARC A4 Hela HiBit DC50
Method in brief: (§1)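 HeLa cells engineered by CRISPR/Cas9 to carry a HiBiT tag fused to the C-terminus of SMARCA4 (Promega CS3023225) were grown in DMEM supplemented with FBS and penicillin-streptomycin. After compound exposure, remaining SMARCA4 protein was quantified using the Nano-Glo® HiBiT Lytic Detection Assay (Promega N3050), and curves were fitted in GraphPad Prism.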

SMARCA2 = SMARCA2 (Homo sapiens, UniProt P51531); test: HiBiT assay for protein degradation, Hela SMARCA2-HiBiT cells (A series); assay type: cell-based; set-up: Hela cells were genetically modified via CRISPR/Cas9 to fuse HiBiT to the carboxy terminus of SMARCA2; host or cells: HeLa (CRISPR/Cas9 HiBiT knock-in); details: for DC50: read-out: SMARC A2 Hela HiBit DC50; for Dmax: read-out: SMARC A2 Hela HiBit Dmax (%);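 for SMARC A2 Hela HiBit Dmax (%): 24 h compound treatment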
Method in brief: as §1, with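 “SMARCA2” for “SMARCA4”, “CS302365)” for “CS3023225)”, “treatment,” for “compound exposure,”, “with” for “using”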

[1] = Hela SMARCA4-HiBiT cells, 24 hours treatment
[2] = Hela SMARCA4-HiBiT cells, 24 hours treatment, read-out: SMARC A4 Hela HiBit Dmax(%)
[3] = Hela SMARCA2-HiBiT cells, 24 hours treatment
[4] = Hela SMARCA4-HiBiT cells, 24 hours treatment, read-out: SMARC A4 Hela HiBit Dmax
[5] = HeLa, read-out: SMARC A4 Hela HiBit Dmax(%)

SMARCA2, sequence (P51531 whole entry): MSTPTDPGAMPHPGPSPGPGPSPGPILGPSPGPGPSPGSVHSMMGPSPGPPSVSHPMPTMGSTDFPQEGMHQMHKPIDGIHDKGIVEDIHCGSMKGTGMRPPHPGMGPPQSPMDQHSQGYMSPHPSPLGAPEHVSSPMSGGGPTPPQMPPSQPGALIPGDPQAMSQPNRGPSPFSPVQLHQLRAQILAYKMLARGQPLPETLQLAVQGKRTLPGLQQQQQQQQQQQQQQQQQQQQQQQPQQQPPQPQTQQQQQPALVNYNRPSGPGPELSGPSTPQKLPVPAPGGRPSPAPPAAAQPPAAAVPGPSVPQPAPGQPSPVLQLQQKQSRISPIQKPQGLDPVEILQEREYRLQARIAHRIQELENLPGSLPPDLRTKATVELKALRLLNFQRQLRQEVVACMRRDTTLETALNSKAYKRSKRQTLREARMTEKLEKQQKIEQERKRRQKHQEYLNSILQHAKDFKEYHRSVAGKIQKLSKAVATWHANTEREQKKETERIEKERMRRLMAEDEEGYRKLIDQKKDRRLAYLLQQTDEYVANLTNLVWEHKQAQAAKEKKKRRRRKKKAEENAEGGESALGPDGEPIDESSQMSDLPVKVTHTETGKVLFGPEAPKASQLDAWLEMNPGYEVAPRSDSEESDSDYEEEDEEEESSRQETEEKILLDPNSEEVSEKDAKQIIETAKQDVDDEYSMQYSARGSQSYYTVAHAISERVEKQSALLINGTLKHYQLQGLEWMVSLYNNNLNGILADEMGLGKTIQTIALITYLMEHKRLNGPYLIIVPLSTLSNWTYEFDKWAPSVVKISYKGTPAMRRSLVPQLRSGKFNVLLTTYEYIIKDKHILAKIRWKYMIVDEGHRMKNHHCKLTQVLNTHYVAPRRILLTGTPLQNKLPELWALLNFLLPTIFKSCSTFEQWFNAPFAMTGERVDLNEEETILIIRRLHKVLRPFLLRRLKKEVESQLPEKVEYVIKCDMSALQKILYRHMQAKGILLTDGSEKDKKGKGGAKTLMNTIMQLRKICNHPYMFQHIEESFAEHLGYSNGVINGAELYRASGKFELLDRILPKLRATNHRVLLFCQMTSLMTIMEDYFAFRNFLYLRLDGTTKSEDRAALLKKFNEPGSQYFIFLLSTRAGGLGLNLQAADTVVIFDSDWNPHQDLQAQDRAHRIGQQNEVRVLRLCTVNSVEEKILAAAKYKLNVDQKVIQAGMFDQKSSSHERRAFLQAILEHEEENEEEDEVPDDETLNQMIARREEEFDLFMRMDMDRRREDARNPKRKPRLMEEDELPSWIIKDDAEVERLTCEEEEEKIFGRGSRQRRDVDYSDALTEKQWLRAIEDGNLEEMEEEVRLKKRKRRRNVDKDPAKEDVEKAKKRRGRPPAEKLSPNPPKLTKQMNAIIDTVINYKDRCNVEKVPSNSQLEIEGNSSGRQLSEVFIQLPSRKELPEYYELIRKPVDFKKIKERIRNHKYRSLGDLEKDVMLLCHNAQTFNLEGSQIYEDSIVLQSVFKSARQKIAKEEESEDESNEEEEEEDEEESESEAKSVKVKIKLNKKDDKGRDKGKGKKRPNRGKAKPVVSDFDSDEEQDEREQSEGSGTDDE
SMARCA4, sequence (P51532 whole entry, the tested form may be a part): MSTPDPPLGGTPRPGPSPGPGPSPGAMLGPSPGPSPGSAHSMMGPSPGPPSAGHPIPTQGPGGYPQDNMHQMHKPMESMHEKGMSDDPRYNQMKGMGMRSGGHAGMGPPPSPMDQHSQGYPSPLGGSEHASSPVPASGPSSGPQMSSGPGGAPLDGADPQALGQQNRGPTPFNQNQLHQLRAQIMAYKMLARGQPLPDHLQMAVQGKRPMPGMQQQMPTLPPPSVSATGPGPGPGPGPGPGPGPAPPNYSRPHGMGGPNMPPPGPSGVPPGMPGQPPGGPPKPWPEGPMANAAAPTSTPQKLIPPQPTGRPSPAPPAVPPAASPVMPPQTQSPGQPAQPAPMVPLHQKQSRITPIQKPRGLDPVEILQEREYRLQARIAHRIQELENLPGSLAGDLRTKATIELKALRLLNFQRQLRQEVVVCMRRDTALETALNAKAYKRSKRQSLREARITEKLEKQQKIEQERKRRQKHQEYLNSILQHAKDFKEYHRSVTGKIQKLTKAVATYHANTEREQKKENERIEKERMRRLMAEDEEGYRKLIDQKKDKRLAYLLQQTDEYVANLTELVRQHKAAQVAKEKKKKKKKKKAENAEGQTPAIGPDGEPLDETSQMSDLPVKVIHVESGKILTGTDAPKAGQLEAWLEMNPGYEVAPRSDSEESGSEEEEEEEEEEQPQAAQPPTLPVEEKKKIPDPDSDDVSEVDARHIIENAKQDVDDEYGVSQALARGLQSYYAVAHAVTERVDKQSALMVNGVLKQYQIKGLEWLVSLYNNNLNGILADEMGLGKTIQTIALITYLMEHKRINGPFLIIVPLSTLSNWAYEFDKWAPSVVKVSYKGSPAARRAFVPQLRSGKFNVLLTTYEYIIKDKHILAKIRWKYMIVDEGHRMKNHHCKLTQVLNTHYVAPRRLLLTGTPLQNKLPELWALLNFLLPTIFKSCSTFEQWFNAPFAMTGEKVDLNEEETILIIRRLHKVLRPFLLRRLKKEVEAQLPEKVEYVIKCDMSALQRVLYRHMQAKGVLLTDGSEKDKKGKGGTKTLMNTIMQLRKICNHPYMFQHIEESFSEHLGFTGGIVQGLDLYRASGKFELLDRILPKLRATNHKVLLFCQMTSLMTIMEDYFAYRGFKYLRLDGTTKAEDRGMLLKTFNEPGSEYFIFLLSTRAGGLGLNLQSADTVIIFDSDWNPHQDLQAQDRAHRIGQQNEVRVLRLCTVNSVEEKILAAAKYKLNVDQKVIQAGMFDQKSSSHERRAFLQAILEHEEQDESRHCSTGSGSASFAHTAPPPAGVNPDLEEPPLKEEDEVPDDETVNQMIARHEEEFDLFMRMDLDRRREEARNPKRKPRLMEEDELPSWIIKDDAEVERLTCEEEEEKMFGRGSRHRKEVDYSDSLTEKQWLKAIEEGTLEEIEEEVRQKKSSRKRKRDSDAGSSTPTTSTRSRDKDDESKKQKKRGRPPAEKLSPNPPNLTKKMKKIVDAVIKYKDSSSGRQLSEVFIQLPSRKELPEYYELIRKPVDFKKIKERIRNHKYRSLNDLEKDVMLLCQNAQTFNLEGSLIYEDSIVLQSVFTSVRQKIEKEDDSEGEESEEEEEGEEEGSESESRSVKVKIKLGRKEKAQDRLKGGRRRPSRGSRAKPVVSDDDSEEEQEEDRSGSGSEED

Structure (SMILES) | DC50 (SMARCA4; [1]) [nM] | Dmax (SMARCA4; [2]) [%] | DC50 (SMARCA2; [3]) [nM] | Dmax (SMARCA2; [3]) [%] | Dmax (SMARCA4; [4]) [%] | other results
Cc1ncsc1-c1ccc([C@H](CCCCCN2CCC(c3ccc4c(c3)C3(CCCCC3)c3nc(=O)c5c(Br)cccc5n3-4)CC2)NC(=O)[C@@H]2C[C@@H](O)CN2C(=O)[C@@H](NC(=O)C2(N(C)C)CC2)C(C)(C)C)cc1 [Compound A17, (2S,4R)—N—((S)-6-(4-(4′-bromo-5′-oxo-5′H-spiro[cyclohexane-1,7′-indolo[1,2-a]quinazolin]-9′-yl)piperidin-1-yl)-1-(4-(4-methylthiazol-5-yl)phenyl)hexyl)-1-((S)-2-(1-(dimethylamino)cyclopropane-1-carboxamido)-3,3-dimethylbutanoyl)-4-hydroxypyrrolidine-2-carboxamide] | < 100 | > 90 | < 100 | 70 to 90 |  | 
Cc1ncsc1-c1ccc([C@@H](NC(=O)[C@@H]2C[C@@H](O)CN2C(=O)[C@@H](n2cc(C3CC3)nn2)C(C)(C)C)C(=O)N2CCC(N3CCC(c4ccc5c(c4)-n4c(nc(=O)c6c(Br)cccc64)C54CCCCC4)CC3)CC2)cc1 [Compound A138, (2S,4R)—N—((R)-2-(4-(4′-bromo-5′-oxo-5′H-spiro[cyclohexane-1,7′-indolo[1,2-a]quinazolin]-10′-yl)-[1,4′-bipiperidin]-1′-yl)-1-(4-(4-methylthiazol-5-yl)phenyl)-2-oxoethyl)-1-((S)-2-(4-cyclopropyl-1H-1,2,3-triazol-1-yl)-3,3-dimethylbutanoyl)-4-hydroxypyrrolidine-2-carboxamide] | < 10 |  | < 10 | > 90 | > 90 | 
Cc1ncsc1-c1ccc([C@H](C)NC(=O)[C@@H]2C[C@@H](O)CN2C(=O)[C@@H](NC(=O)CCCCCN2CCC(c3ccc4c(c3)C3(CCCCC3)c3nc(=O)c5c(Cl)cccc5n3-4)CC2)C(C)(C)C)cc1 [Compound A9, (2S,4R)-1-((S)-2-(6-(4-(4′-chloro-5′-oxo-5′H-spiro[cyclohexane-1,7′-indolo[1,2-a]quinazolin]-9′-yl)piperidin-1-yl)hexanamido)-3,3-dimethylbutanoyl)-4-hydroxy-N—((S)-1-(4-(4-methylthiazol-5-yl)phenyl)ethyl) pyrrolidine-2-carboxamide] | 501 to 1000 |  | < 100 |  |  | Dmax (SMARCA4; [5]): 50 to 69%; Dmax (SMARCA2; HeLa): > 90%
Cc1ncsc1-c1ccc([C@H](CN2CCC(O)CC2)NC(=O)[C@@H]2C[C@@H](O)CN2C(=O)[C@@H](n2cc([C@H]3CC[C@H](CN4CCC(c5ccc6c(c5)-n5c(nc(=O)c7c(Cl)cccc75)C65CCCCC5)CC4)CC3)nn2)C(C)(C)C)cc1 [Compound A73, (2S,4R)-1-((S)-2-(4-((1r,4S)-4-((4-(4′-chloro-5′-oxo-5′H-spiro[cyclohexane-1,7′-indolo[1,2-a]quinazolin]-10′-yl)piperidin-1-yl)methyl)cyclohexyl)-1H-1,2,3-triazol-1-yl)-3,3-dimethylbutanoyl)-4-hydroxy-N—((R)-2-(4-hydroxypiperidin-1-yl)-1-(4-(4-methylthiazol-5-yl)phenyl)ethyl)pyrrolidine-2-carboxamide] | > 1000 | 50 to 69 | < 100 | > 90 |  | 
Cc1ncsc1-c1ccc([C@H](C)NC(=O)[C@@H]2C[C@@H](O)CN2C(=O)[C@@H](n2cc(CCN3CCC(c4ccc5c(c4)C4(CCCCC4)c4nc(=O)c6c(Br)cccc6n4-5)CC3)nn2)C(C)(C)C)cc1 [Compound A54, (2S,4R)-1-((S)-2-(4-(2-(4-(4′-bromo-5′-oxo-5′H-spiro[cyclohexane-1,7′-indolo[1,2-a]quinazolin]-9′-yl)piperidin-1-yl)ethyl)-1H-1,2,3-triazol-1-yl)-3,3-dimethylbutanoyl)-4-hydroxy-N—((S)-1-(4-(4-methylthiazol-5-yl)phenyl)ethyl)pyrrolidine-2-carboxamide] | < 100 | > 90 | < 100 | > 90 |  | 
COCCOCCOCCOCCOC[C@H](NC(=O)[C@@H]1C[C@@H](O)CN1C(=O)[C@@H](n1cc([C@H]2CC[C@H](CN3CCC(c4ccc5c(c4)-n4c(nc(=O)c6c(Cl)cccc64)C54CCCCC4)CC3)CC2)nn1)C(C)(C)C)c1ccc(-c2scnc2C)cc1 [Compound A149, (2S,4R)-1-((S)-2-(4-((1r,4S)-4-((4-(4′-chloro-5′-oxo-5′H-spiro[cyclohexane-1,7′-indolo[1,2-a]quinazolin]-10′-yl)piperidin-1-yl)methyl)cyclohexyl)-1H-1,2,3-triazol-1-yl)-3,3-dimethylbutanoyl)-4-hydroxy-N—((R)-16-(4-(4-methylthiazol-5-yl)phenyl)-2,5,8,11,14-pentaoxahexadecan-16-yl)pyrrolidine-2-carboxamide] | > 1000 |  | < 10 | > 90 | 50 to 69 | 
Cc1ncsc1-c1ccc([C@H](CN2CCOCC2)NC(=O)[C@@H]2C[C@@H](O)CN2C(=O)[C@H](C(C)C)n2cc([C@H]3CC[C@H](CN4CCC(c5ccc6c(c5)-n5c(nc(=O)c7c(Cl)cccc75)C65CCCCC5)CC4)CC3)nn2)cc1 [Compound A103, (2S,4R)-1-((S)-2-(4-((1r,4S)-4-((4-(4′-chloro-5′-oxo-5′H-spiro[cyclohexane-1,7′-indolo[1,2-a]quinazolin]-10′-yl)piperidin-1-yl)methyl)cyclohexyl)-1H-1,2,3-triazol-1-yl)-3-methylbutanoyl)-4-hydroxy-N-((R)-1-(4-(4-methylthiazol-5-yl)phenyl)-2-morpholinoethyl)pyrrolidine-2-carboxamide] | < 10 |  | < 10 | > 90 | 50 to 69 | 
Cc1ncsc1-c1ccc([C@H](CN2CCOCC2)NC(=O)[C@@H]2C[C@@H](O)CN2C(=O)[C@H](C2CCOCC2)n2cc([C@H]3CC[C@H](CN4CCC(c5ccc6c(c5)-n5c(nc(=O)c7c(Br)cccc75)C65CCCCC5)CC4)CC3)nn2)cc1 [Compound A101, (2S,4R)-1-((S)-2-(4-((1r,4S)-4-((4-(4′-bromo-5′-oxo-5′H-spiro[cyclohexane-1,7′-indolo[1,2-a]quinazolin]-10′-yl)piperidin-1-yl)methyl)cyclohexyl)-1H-1,2,3-triazol-1-yl)-2-(tetrahydro-2H-pyran-4-yl)acetyl)-4-hydroxy-N-((R)-1-(4-(4-methylthiazol-5-yl)phenyl)-2-morpholinoethyl)pyrrolidine-2-carboxamide] | 10 to 100 |  | < 10 | > 90 | 70 to 90 | 
Cc1ncsc1-c1ccc([C@H](C)NC(=O)[C@@H]2C[C@@H](O)CN2C(=O)[C@@H](n2cc(C3(CCN4CCC(c5ccc6c(c5)-n5c(nc(=O)c7c(Br)cccc75)C65CCCCC5)CC4)CC3)nn2)C(C)(C)C)cc1 [Compound A65, (2S,4R)-1-((S)-2-(4-(1-(2-(4-(4′-bromo-5′-oxo-5′H-spiro[cyclohexane-1,7′-indolo[1,2-a]quinazolin]-10′-yl)piperidin-1-yl)ethyl)cyclopropyl)-1H-1,2,3-triazol-1-yl)-3,3-dimethylbutanoyl)-4-hydroxy-N—((S)-1-(4-(4-methylthiazol-5-yl)phenyl)ethyl)pyrrolidine-2-carboxamide] |  |  |  |  |  | SMARC A4 Hela HiBit Dmax(%) (SMARCA4; [1]): A (A (>90% degradation)); DC50 (SMARCA4): < 100 nM; SMARC A2 Hela HiBit Dmax (%) (SMARCA2; [3]): A (A (>90% degradation)); DC50 (SMARCA2): < 100 nM
Cc1ncsc1-c1ccc([C@H](C)NC(=O)[C@@H]2C[C@@H](O)CN2C(=O)[C@@H](NC(=O)CCCN2CCC(c3ccc4c(c3)C3(CCCCC3)c3nc(=O)c5c(Cl)cccc5n3-4)CC2)C(C)(C)C)cc1 [Compound A7, (2S,4R)-1-((S)-2-(4-(4-(4′-chloro-5′-oxo-5′H-spiro[cyclohexane-1,7′-indolo[1,2-a]quinazolin]-9′-yl)piperidin-1-yl)butanamido)-3,3-dimethylbutanoyl)-4-hydroxy-N—((S)-1-(4-(4-methylthiazol-5-yl)phenyl)ethyl) pyrrolidine-2-carboxamide] |  |  | 100 to 500 |  |  | Dmax (SMARCA4; [5]): < 50%; SMARC A4 Hela HiBit DC50(nM) (SMARCA4; [1]): No fit; Dmax (SMARCA2; HeLa): 70 to 90%
